{"source": "patent US10035760B2", "about": "“Inhibitors of human immunodeficiency virus replication” (priority 2013, dated 2018)"}
{"tested_on": "recombinant NL4-3 virus (Renilla luciferase) in MT-2 cells", "assay": "HIV cell culture assay (antiviral activity, luciferase readout in infected MT-2 cells)", "type": "cell-based", "details": "Renilla, NL43, read-out: Activity, antiviral activity class, recombinant NL4-3 Renilla luciferase virus in MT-2 cells", "in_short": "(§1)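 Nef-deleted NL4-3 carrying Renilla luciferase, produced by 293T transfection, used to infect MT-2 cells for 4–5 days with serial compound dilutions. Live-cell luciferase signal read as infection marker; EC50 from exponential median-effect equation.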", "units": {"EC50": "nM"}}
{"smiles": "CCN(C(=O)[C@H](Cc1ccccc1)NC(=O)NS(=O)(=O)c1cccc(-c2ccnn2CC(C)C)c1C)c1ccc(OC)cc1", "note": "[Example 214, (S)—N-ethyl-2-(3-((3-(1-isobutyl-1H-pyrazol-5-yl)-2-methylphenyl)sulfonyl)ureido)-N-(4-methoxyphenyl)-3-phenylpropanamide]", "EC50": "100 to 1000"}
{"smiles": "CCN(C(=O)[C@H](Cc1ccccc1)NC(=O)NS(=O)(=O)c1cccc(Cl)c1Cl)c1ccc(OC)cc1", "note": "[Example 119, (S)-2-(3-((2,3-dichlorophenyl)sulfonyl)ureido)-N-ethyl-N-(4-methoxyphenyl)-3-phenylpropanamide]", "EC50": "< 100"}
{"smiles": "Cc1ccccc1S(=O)(=O)NC(=O)N[C@@H](Cc1ccccc1)C(=O)N1CCc2ccccc21", "note": "[Example 174, (S)—N-((1-(indolin-1-yl)-1-oxo-3-phenylpropan-2-yl)carbamoyl)-2-methylbenzenesulfonamide]", "EC50": "1000 to 10000"}
{"smiles": "CN(C(=O)[C@H](Cc1ccccc1)NC(=O)NS(=O)(=O)c1ccc(Cl)cc1)c1ccc2c(c1)OCO2", "note": "[Example 6, (S)—N-(benzo[d][1,3]dioxol-5-yl)-2-(3-((4-chlorophenyl)sulfonyl)ureido)-N-methyl-3-phenylpropanamide]", "EC50": "100 to 1000"}
{"smiles": "CCN(C(=O)[C@H](Cc1ccccc1)NC(=O)NS(=O)(=O)c1cccc(Br)c1C)c1ccc(OC)cc1", "note": "[Example 115, (S)-2-(3-((3-bromo-2-methylphenyl)sulfonyl)ureido)-N-ethyl-N-(4-methoxyphenyl)-3-phenylpropanamide]", "EC50": "< 100"}
{"smiles": "C=C(C)c1ccccc1S(=O)(=O)NC(=O)N[C@@H](Cc1ccccc1)C(=O)N(C)c1ccc2c(c1)OCO2", "note": "[Example 134, (S)—N-(benzo[d][1,3]dioxol-5-yl)-N-methyl-3-phenyl-2-(3-((2-(prop-1-en-2-yl)phenyl)sulfonyl)ureido)propanamide]", "EC50": "1000 to 10000"}
{"smiles": "C=Cc1ccccc1S(=O)(=O)NC(=O)N[C@@H](Cc1ccccc1)C(=O)N(C)c1ccc2c(c1)OCO2", "note": "[Example 136, (S)—N-(benzo[d][1,3]dioxol-5-yl)-N-methyl-3-phenyl-2-(3-((2-vinylphenyl)sulfonyl)ureido)propanamide]", "EC50": "< 100"}
{"smiles": "COc1ncccc1-c1ccccc1S(=O)(=O)NC(=O)N[C@@H](Cc1ccccc1)C(=O)N(C)c1ccc2c(c1)OCO2", "note": "[Example 129, (S)—N-(benzo[d][1,3]dioxol-5-yl)-2-(3-((2-(2-methoxypyridin-3-yl)phenyl)sulfonyl)ureido)-N-methyl-3-phenylpropanamide]", "EC50": "1000 to 10000"}
{"smiles": "CN(C(=O)[C@H](Cc1ccccc1)NC(=O)NS(=O)(=O)c1ccccc1-c1cccc(O)c1)c1ccc2c(c1)OCO2", "note": "[Example 125, (S)—N-(benzo[d][1,3]dioxol-5-yl)-2-(3-((3′-hydroxy-[1,1′-biphenyl]-2-yl)sulfonyl)ureido)-N-methyl-3-phenylpropanamide]", "EC50": "1000 to 10000"}
{"smiles": "Cc1ccccc1S(=O)(=O)NC(=O)N[C@@H](Cc1cccc(F)c1)C(=O)N(C)c1ccc2c(c1)OCO2", "note": "[Example 85, (S)—N-(benzo[d][1,3]dioxol-5-yl)-3-(3-fluorophenyl)-N-methyl-2-(3-(o-tolylsulfonyl)ureido)propanamide]", "EC50": "100 to 1000"}
{"smiles": "CN(C(=O)[C@H](Cc1ccccc1)NC(=O)NS(=O)(=O)Cc1ccc(Cl)c(Cl)c1)c1ccc2c(c1)OCO2", "note": "[Example 102, (S)—N-(benzo[d][1,3]dioxol-5-yl)-2-(3-((3,4-dichlorobenzyl)sulfonyl)ureido)-N-methyl-3-phenylpropanamide]", "EC50": "100 to 1000"}
{"smiles": "CN(C(=O)[C@H](Cc1ccccc1)NC(=O)NS(=O)(=O)c1ccccc1-c1ccc(C(N)=O)cc1)c1ccc2c(c1)OCO2", "note": "[Example 131, (S)-2′-(N-((1-(benzo[d][1,3]dioxol-5-yl(methyl)amino)-1-oxo-3-phenylpropan-2-yl)carbamoyl)sulfamoyl)-[1,1′-biphenyl]-4-carboxamide]", "EC50": "10000 to 100000"}
{"smiles": "CCN(C(=O)[C@H](Cc1ccccc1)NC(=O)NS(=O)(=O)c1cccc(-c2csc3ccccc23)c1C)c1ccc(OC)cc1", "note": "[Example 161, (S)-2-(3-((3-(benzo[b]thiophen-3-yl)-2-methylphenyl)sulfonyl)ureido)-N-ethyl-N-(4-methoxyphenyl)-3-phenylpropanamide]", "EC50": "1000 to 10000"}
{"smiles": "Cc1ccccc1S(=O)(=O)NC(=O)N[C@@H](Cc1ccccc1)C(=O)N(C)c1nc2ccccc2s1", "note": "[Example 176, (S)—N-(benzo[d]thiazol-2-yl)-N-methyl-3-phenyl-2-(3-(o-tolylsulfonyl)ureido)propanamide]", "EC50": "10000 to 100000"}
{"smiles": "CN(C(=O)[C@H](Cc1ccccc1)NC(=O)NS(=O)(=O)c1cccc(Br)c1)c1ccc2c(c1)OCO2", "note": "[Example 19, (S)—N-(benzo[d][1,3]dioxol-5-yl)-2-(3-((3-bromophenyl)sulfonyl)ureido)-N-methyl-3-phenylpropanamide]", "EC50": "100 to 1000"}
{"smiles": "Cc1ccccc1S(=O)(=O)NC(=O)N[C@@H](Cc1ccc(C#N)cc1)C(=O)N(C)c1ccc2c(c1)OCO2", "note": "[Example 63, (S)—N-(benzo[d][1,3]dioxol-5-yl)-3-(4-cyanophenyl)-N-methyl-2-(3-(o-tolylsulfonyl)ureido)propanamide]", "EC50": "1000 to 10000"}
{"smiles": "Cc1ccccc1S(=O)(=O)NC(=O)N[C@@H](Cc1ccccc1Cl)C(=O)N(C)c1ccc2c(c1)OCO2", "note": "[Example 54, (S)—N-(benzo[d][1,3]dioxol-5-yl)-3-(2-chlorophenyl)-N-methyl-2-(3-(o-tolylsulfonyl)ureido)propanamide]", "EC50": "100 to 1000"}
{"smiles": "CN(C(=O)[C@H](Cc1ccccc1)NC(=O)NS(=O)(=O)Cc1ccccc1)c1ccc2c(c1)OCO2", "note": "[Example 10, (S)—N-(benzo[d][1,3]dioxol-5-yl)-2-(3-(benzylsulfonyl)ureido)-N-methyl-3-phenylpropanamide]", "EC50": "100 to 1000"}
{"smiles": "CNS(=O)(=O)c1cccc(N(C)C(=O)[C@H](Cc2cc(F)cc(F)c2)NC(=O)NS(=O)(=O)c2ccccc2C)c1", "note": "[Example CA-106, (S)-3-(3,5-difluorophenyl)-N-methyl-N-(3-(N-methylsulfamoyl)phenyl)-2-(3-(o-tolylsulfonyl)ureido)propanamide]", "EC50": "1000 to 10000"}
{"smiles": "C=Cc1cccc(C[C@H](NC(=O)NS(=O)(=O)c2ccccc2C=C)C(=O)N(C)c2ccc(OC)cc2)c1", "note": "[Example 212, (S)—N-(4-methoxyphenyl)-N-methyl-3-(3-vinylphenyl)-2-(3-((2-vinylphenyl)sulfonyl)ureido)propanamide]", "EC50": "< 100"}
{"smiles": "CCN(C(=O)[C@H](Cc1ccccc1)NC(=O)NS(=O)(=O)c1ccccc1C)c1ccc2c(c1)CCCO2", "note": "[Example CA-81, (S)—N-(chroman-6-yl)-N-ethyl-3-phenyl-2-(3-(o-tolylsulfonyl)ureido)propanamide]", "EC50": "< 100"}
{"smiles": "COc1ccc(N(C)C(=O)[C@H](Cc2cc(F)cc(F)c2)NC(=O)NS(=O)(=O)c2ccccc2F)cc1", "note": "[Example 204, (S)-3-(3,5-difluorophenyl)-2-(3-((2-fluorophenyl)sulfonyl)ureido)-N-(4-methoxyphenyl)-N-methylpropanamide]", "EC50": "100 to 1000"}
{"smiles": "Cc1cccc(N(C)C(=O)[C@H](Cc2ccccc2)NC(=O)NS(=O)(=O)c2ccccc2)c1", "note": "[Example 90]", "EC50": "100 to 1000"}
{"smiles": "CC(C)C1CC1S(=O)(=O)NC(=O)N[C@@H](Cc1ccccc1)C(=O)N(C)c1ccc2c(c1)OCO2", "note": "(stereo partly drawn) [Example 106, (2S)—N-(benzo[d][1,3]dioxol-5-yl)-2-(3-((2-isopropylcyclopropyl)sulfonyl)ureido)-N-methyl-3-phenylpropanamide]", "EC50": "100 to 1000"}
{"smiles": "COc1ccc(N(C)C(=O)[C@H](Cc2ccncc2)NC(=O)NS(=O)(=O)c2ccccc2C)cc1", "note": "[Example 199, (S)—N-(4-methoxyphenyl)-N-methyl-3-(pyridin-4-yl)-2-(3-(o-tolylsulfonyl)ureido)propanamide]", "EC50": "10000 to 100000"}
{"smiles": "CN(C(=O)[C@H](Cc1ccccc1)NC(=O)NS(=O)(=O)c1cc(Cl)cc(Cl)c1)c1ccc2c(c1)OCO2", "note": "[Example 11, (S)—N-(benzo[d][1,3]dioxol-5-yl)-2-(3-((3,5-dichlorophenyl)sulfonyl)ureido)-N-methyl-3-phenylpropanamide]", "EC50": "100 to 1000"}
{"smiles": "Cc1ccccc1S(=O)(=O)NC(=O)N[C@@H](Cc1cc(F)cc(F)c1)C(=O)N(C)c1ccc2scnc2c1", "note": "[Example ZY-7, (S)—N-(benzo[d]thiazol-5-yl)-3-(3,5-difluorophenyl)-N-methyl-2-(3-(o-tolylsulfonyl)ureido)propanamide]", "EC50": "< 100"}
{"smiles": "C/C=C\\c1cccc(S(=O)(=O)NC(=O)N[C@@H](Cc2ccccc2)C(=O)N(CC)c2ccc(OC)cc2)c1", "note": "[Example 140]", "EC50": "< 100"}
{"smiles": "CCn1c(C)nc2cc(N(C)C(=O)[C@H](Cc3ccccc3)NC(=O)NS(=O)(=O)c3ccccc3C)ccc21", "note": "[Example CA-74, (S)—N-(1-ethyl-2-methyl-1H-benzo[d]imidazol-5-yl)-N-methyl-3-phenyl-2-(3-(o-tolylsulfonyl)ureido)propanamide]", "EC50": "1000 to 10000"}
{"smiles": "CCN(C(=O)[C@H](Cc1ccccc1)NC(=O)NS(=O)(=O)c1cccc(-c2csc3ccccc23)c1)c1ccc(OC)cc1", "note": "[Example 153, (S)-2-(3-((3-(benzo[b]thiophen-3-yl)phenyl)sulfonyl)ureido)-N-ethyl-N-(4-methoxyphenyl)-3-phenylpropanamide]", "EC50": "100 to 1000"}
{"smiles": "COc1cccc(N(C)C(=O)[C@H](Cc2ccccc2)NC(=O)NS(=O)(=O)c2ccccc2)c1", "note": "[Example 89]", "EC50": "100 to 1000"}
{"smiles": "CCN(C(=O)[C@H](Cc1ccccc1)NC(=O)NS(=O)(=O)c1cccc(-c2ccsc2Cl)c1C)c1ccc(OC)cc1", "note": "[Example 156, (S)-2-(3-((3-(2-chlorothiophen-3-yl)-2-methylphenyl)sulfonyl)ureido)-N-ethyl-N-(4-methoxyphenyl)-3-phenylpropanamide]", "EC50": "100 to 1000"}
{"tested_on": "recombinant NL4-3 virus (Renilla luciferase) in MT-2 cells", "assay": "HIV cell culture assay (antiviral activity, luciferase readout in infected MT-2 cells)", "type": "cell-based", "details": "Renilla, NL43, recombinant NL4-3 Renilla luciferase virus in MT-2 cells", "in_short": "as §1", "units": {"EC50": "nM"}}
{"smiles": "CCN(C(=O)[C@H](Cc1ccccc1)NC(=O)NS(=O)(=O)c1cccc(-c2ccnn2CC(C)C)c1C)c1ccc(OC)cc1", "note": "[Example 214, (S)—N-ethyl-2-(3-((3-(1-isobutyl-1H-pyrazol-5-yl)-2-methylphenyl)sulfonyl)ureido)-N-(4-methoxyphenyl)-3-phenylpropanamide]", "EC50": 870}
{"smiles": "Cc1ccccc1S(=O)(=O)NC(=O)N[C@@H](Cc1ccccc1)C(=O)N1CCc2ccccc21", "note": "[Example 174, (S)—N-((1-(indolin-1-yl)-1-oxo-3-phenylpropan-2-yl)carbamoyl)-2-methylbenzenesulfonamide]", "EC50": 3840}
{"smiles": "COc1ncccc1-c1ccccc1S(=O)(=O)NC(=O)N[C@@H](Cc1ccccc1)C(=O)N(C)c1ccc2c(c1)OCO2", "note": "[Example 129, (S)—N-(benzo[d][1,3]dioxol-5-yl)-2-(3-((2-(2-methoxypyridin-3-yl)phenyl)sulfonyl)ureido)-N-methyl-3-phenylpropanamide]", "EC50": 5520}
{"smiles": "C=Cc1cccc(C[C@H](NC(=O)NS(=O)(=O)c2ccccc2C=C)C(=O)N(C)c2ccc(OC)cc2)c1", "note": "[Example 212, (S)—N-(4-methoxyphenyl)-N-methyl-3-(3-vinylphenyl)-2-(3-((2-vinylphenyl)sulfonyl)ureido)propanamide]", "EC50": 58}
{"smiles": "CCN(C(=O)[C@H](Cc1ccccc1)NC(=O)NS(=O)(=O)c1ccccc1C)c1ccc2c(c1)CCCO2", "note": "[Example CA-81, (S)—N-(chroman-6-yl)-N-ethyl-3-phenyl-2-(3-(o-tolylsulfonyl)ureido)propanamide]", "EC50": 40}
{"smiles": "CCn1c(C)nc2cc(N(C)C(=O)[C@H](Cc3ccccc3)NC(=O)NS(=O)(=O)c3ccccc3C)ccc21", "note": "[Example CA-74, (S)—N-(1-ethyl-2-methyl-1H-benzo[d]imidazol-5-yl)-N-methyl-3-phenyl-2-(3-(o-tolylsulfonyl)ureido)propanamide]", "EC50": 2030}
{"tested_on": "recombinant NL4-3 virus (Renilla luciferase) in MT-2 cells", "assay": "HIV cell culture assay (antiviral activity, luciferase readout in infected MT-2 cells)", "type": "cell-based", "details": "read-out: Activity; antiviral activity class, recombinant NL4-3 Renilla luciferase virus in MT-2 cells", "in_short": "as §1", "units": {"EC50": "nM"}}
{"smiles": "CN(C(=O)[C@H](Cc1ccccc1)NC(=O)NS(=O)(=O)c1ccccc1-c1cnn(C)c1)c1ccc2c(c1)OCO2", "note": "[Example 133, (S)—N-(benzo[d][1,3]dioxol-5-yl)-N-methyl-2-(3-((2-(1-methyl-1H-pyrazol-4-yl)phenyl)sulfonyl)ureido)-3-phenylpropanamide]", "EC50": "100 to 1000"}
